According to patent US11066414B2, “Cot modulators and methods of use thereof” (Gilead Sciences, Inc., priority 2015, dated 2021):
Like-named read-outs stand apart in the source and are kept apart here.

Tests used:
TNFα = assay: Cot Monocyte TNFα Cell Based Assay
Human Cot = Human Cot (Homo sapiens (Human), UniProt P41279); assay: High Throughput Cot Biochemical Assay; details: Cot HTRF (TR-FRET) biochemical assay
[1] = Homo sapiens, Monocyte, read-out: EC50 TNF, LPS-stimulated human monocytes, TNFα
[2] = read-out: EC50 TNF, LPS-stimulated human monocytes, TNFα

Sequence of Human Cot (P41279 30-397): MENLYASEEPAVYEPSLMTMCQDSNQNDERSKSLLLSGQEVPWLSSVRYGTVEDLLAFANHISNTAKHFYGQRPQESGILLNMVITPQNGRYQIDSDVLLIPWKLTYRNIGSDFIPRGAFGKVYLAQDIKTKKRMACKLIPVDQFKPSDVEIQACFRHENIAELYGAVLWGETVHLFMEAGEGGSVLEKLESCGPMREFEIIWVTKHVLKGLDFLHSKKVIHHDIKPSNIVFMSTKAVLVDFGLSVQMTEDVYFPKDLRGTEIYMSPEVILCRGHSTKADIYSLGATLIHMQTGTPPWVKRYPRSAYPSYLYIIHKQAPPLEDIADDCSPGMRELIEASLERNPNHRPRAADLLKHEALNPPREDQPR

EC50 (TNFα; [1]) | IC50 (Human Cot; IC50 HTRF) | EC50 (TNFα; [2]) | IC50 (Human Cot; read-out: IC50 HTRF) | SMILES
60 nM | 3 nM | – | – | Cc1n[nH]c2cccc([C@H](Nc3cc(C#N)c4ncc(C#N)c(NCC(C)(C)C)c4c3)c3cn(C4(C(F)(F)F)CC4)nn3)c12 [Example 528, (S)-6-(((3-methyl-1H-indazol-4-yl)(1-(1-(trifluoro-methyl)cyclopropyl)-1H-1,2,3-triazol-4-yl)methyl)amino)-4-(neopentylamino)quinoline-3,8-dicarbonitrile]
50 nM | 2 nM | – | – | Cn1ncc2c([C@H](Nc3cc(C#N)c4ncc(C#N)c(NCC(C)(C)C)c4c3)c3cn(C4(C)CC4)nn3)cccc21 [Example 529, (S)-6-(((1-methyl-1H-indazol-4-yl)(1-(1-methylcyclopropyl)-1H-1,2,3-triazol-4-yl)methyl)amino)-4-(neopentylamino)-quinoline-3,8-dicarbonitrile]
– | – | 70 nM | 3 nM | Cc1nc(F)ccc1[C@H](Nc1cc(Cl)c2ncc(C#N)c(NCC(C)(C)C)c2c1)c1cn(C(C)(C)C)nn1 [Example 530, (S)-6-(((1-(tert-butyl)-1H-1,2,3-triazol-4-yl)(6-fluoro-2-methylpyridin-3-yl)methyl- )amino)-8-chloro-4-(neopentylamino)-quinoline-3-carbonitrile]
70 nM | 3 nM | – | – | Cc1nc(F)ccc1[C@H](Nc1cc(Cl)c2ncc(C#N)c(NCC(C)(C)C)c2c1)c1cn(C(C)(C)CF)nn1 [Example 531, (S)-8-chloro-6-(((1-(1-fluoro-2-methyl-propan-2-yl)-1H-1,2,3-triazol-4-yl)(6-fluoro-2-methylpyridin-3-yl)methyl)amino)-4-(neopentylamino)quinoline-3-carbonitrile]
78 nM | 3 nM | – | – | Cc1nc(F)ccc1[C@H](Nc1cc(Cl)c2ncc(C#N)c(NCC(C)(C)C)c2c1)c1cn(CC(F)F)nn1 [Example 532, (S)-8-chloro-6-(((1-(2,2-difluoroethyl)-1H-1,2,3-triazol-4-yl)(6-fluoro-2-methyl-pyridin-3-yl)methyl)amino)-4-(neopentyl-amino)quinoline-3-carbonitrile]
96 nM | 3 nM | – | – | CC(C)(C)CNc1c(C#N)cnc2c(Cl)cc(N[C@H](c3cn(C4(C(F)(F)F)CC4)nn3)c3cccc4ccncc34)cc12 [Example 533, (S)-8-chloro-6-((isoquinolin-8-yl(1-(1-(trifluoromethyl)cyclopropyl)-1H-1,2,3-triazol-4-yl)methyl)amino)-4-(neopentyl-amino)quinoline-3-carbonitrile]
394 nM | 20 nM | – | – | Cc1nc(F)ccc1[C@H](Nc1cc(Cl)c2ncc(C#N)c(NCC(C)(C)CO)c2c1)c1cn(C2(C(F)(F)F)CC2)nn1 [Example 534, (S)-8-chloro-6-(((6-fluoro-2-methylpyridin-3-yl)(1-(1-(trifluoromethyl)cyclopropyl)-1H-1,2,3-triazol-4-yl)methyl)amino)-4-((3-hydroxy-2,2-dimethylpropyl)amino)-quinoline-3-carbonitrile]
51 nM | 3 nM | – | – | CC(C)(C)CNc1c(C#N)cnc2c(Cl)cc(N[C@H](c3cn(C4(C(F)F)CC4)nn3)c3cccc4cnccc34)cc12 [Example 536, (S)-8-chloro-6-(((1-(1-(difluoromethyl)-cyclopropyl)-1H-1,2,3-triazol-4-yl)(isoquinolin-5-yl)methyl)amino)-4-(neopentylamino)quinoline-3-carbonitrile]
75 nM | 2 nM | – | – | CC(C)(C)CNc1c(C#N)cnc2c(Cl)cc(N[C@H](c3cn(C4(C(F)F)CC4)nn3)c3cccc4ccncc34)cc12 [Example 537, (S)-8-chloro-6-(((1-(1-(difluoromethyl)-cyclopropyl)-1H-1,2,3-triazol-4-yl)(isoquinolin-8-yl)methyl)amino)-4-(neopentylamino)quinoline-3-carbonitrile]
109 nM | 5 nM | – | – | CC(C)(C)CNc1c(C#N)cnc2c(Cl)cc(N[C@H](c3cn(C4(C(F)F)CC4)nn3)c3cccn4nccc34)cc12 [Example 538, (S)-8-chloro-6-(((1-(1-(difluoromethyl)-cyclopropyl)-1H-1,2,3-triazol-4-yl)(pyrazolo[1,5-a]pyridin-4-yl)methyl)amino)-4-(neopentylamino)-quinoline-3-carbonitrile]
12 nM | 1 nM | – | – | Cc1nc(F)ccc1[C@H](Nc1cc(Cl)c2ncc(C#N)c(N[C@@H]3CCOCC3(C)C)c2c1)c1cn(C2(C(F)F)CC2)nn1 [Example 539, 8-chloro-6-(((S)-(1-(1-(difluoromethyl)-cyclopropyl)-1H-1,2,3-triazol-4-yl)(6-fluoro-2-methylpyridin-3-yl)methyl)-amino)-4-(((R)-3,3-dimethyltetrahydro-2H-pyran-4-yl)amino)quinoline-3-carbonitrile]
760 nM | 50 nM | – | – | Cc1nc(F)ccc1[C@H](Nc1cc(Cl)c2ncc(C#N)c(N[C@H]3CCOCC3(C)C)c2c1)c1cn(C2(C(F)F)CC2)nn1 [Example 540, 8-chloro-6-(((S)-(1-(1-(difluoromethyl)-cyclopropyl)-1H-1,2,3-triazol-4-yl)(6-fluoro-2-methylpyridin-3-yl)methyl)-amino)-4-(((S)-3,3-dimethyltetrahydro-2H-pyran-4-yl)amino)quinoline-3-carbonitrile]
180 nM | 6 nM | – | – | Cc1nc(F)ccc1[C@H](Nc1cc(Cl)c2ncc(C#N)c(NCC(C)(C)C)c2c1)c1cn(C(C)(C)C(F)(F)F)nn1 [Example 541, (S)-8-chloro-6-(((6-fluoro-2-methyl-pyridin-3-yl)(1-(1,1,1-trifluoro-2-methylpropan-2-yl)-1H-1,2,3-triazol-4-yl)methyl)amino)-4-(neopentylamino)-quinoline-3-carbonitrile]
40 nM | 2 nM | – | – | Cn1nnc2cccc([C@H](Nc3cc(Cl)c4ncc(C#N)c(NCC(C)(C)C)c4c3)c3cn(C4(C(F)F)CC4)nn3)c21 [Example 542, (S)-8-chloro-6-(((1-(1-(difluoromethyl)-cyclopropyl)-1H-1,2,3-triazol-4-yl)(1-methyl-1H-benzo[d][1,2,3]triazol-7-yl)methyl)amino)-4-(neopentylamino)-quinoline-3-carbonitrile]
210 nM | 8 nM | – | – | Cn1cc2c([C@H](Nc3cc(Cl)c4ncc(C#N)c(NCC(C)(C)C)c4c3)c3cn(C4(C(F)(F)F)CC4)nn3)cccc2n1 [Example 544, (S)-8-chloro-6-(((2-methyl-2H-indazol-4-yl)(1-(1-(trifluoromethyl)cyclopropyl)-1H-1,2,3-triazol-4-yl)methyl)amino)-4-(neopentylamino)quinoline-3-carbonitrile]
108 nM | 4 nM | – | – | Cc1nc(F)ccc1[C@H](Nc1cc(Cl)c2ncc(C#N)c(NCC(C)(C)C)c2c1)c1cn(C(C)(C)C(F)F)nn1 [Example 545, (S)-8-chloro-6-(((1-(1,1-difluoro-2-methylpropan-2-yl)-1H-1,2,3-triazol-4-yl)(6-fluoro-2-methylpyridin-3-yl)methyl)-amino)-4-(neopentylamino)quinoline-3-carbonitrile]
42 nM | 2 nM | – | – | Cc1nc(F)ccc1[C@H](Nc1cc(Cl)c2ncc(C#N)c(NCC(C)(C)C)c2c1)c1cn([C@@H](C)CF)nn1 [Example 546, 8-chloro-6-(((S)-(6-fluoro-2-methylpyridin-3-yl)(1-((S)-1-fluoropropan-2-yl)-1H-1,2,3-triazol-4-yl)methyl)amino)-4-(neopentylamino)quinoline-3-carbonitrile]
– | – | 33 nM | 2 nM | Cc1nc(F)ccc1[C@H](Nc1cc(Cl)c2ncc(C#N)c(NCC(C)(C)C)c2c1)c1cn(C2(C3CC3)CC2)nn1 [Example 547]
124 nM | 8 nM | – | – | Cc1nc(F)ccc1[C@H](Nc1cc(Cl)c2ncc(C#N)c(NCC(C)(C)C)c2c1)c1cn(C2(C(F)(F)F)COC2)nn1 [Example 548, (S)-8-chloro-6-(((6-fluoro-2-methylpyridin-3-yl)(1-(3-(trifluoromethyl)oxetan-3-yl)-1H-1,2,3-triazol-4-yl)methyl)amino)-4-(neopentylamino)quinoline-3-carbonitrile]
68 nM | 4 nM | – | – | [2H]c1c([C@@H](Nc2cc(Cl)c3ncc(C#N)c(NCC(C)(C)C)c3c2)c2ccc(F)nc2C)nnn1C1(C(F)(F)F)CC1 [Example 549, (S)-8-chloro-6-(((6-fluoro-2-methylpyridin-3-yl)(1-(1-(trifluoromethyl)cyclopropyl)-1H-1,2,3-triazol-4-yl-5-d)methyl)amino)-4-(neopentylamino)quinoline-3-carbonitrile]
29 nM | 2 nM | – | – | CC(C)(C)CNc1c(C#N)cnc2c(C#N)cc(N[C@H](c3cn(C4(C(F)F)CC4)nn3)c3cccc4ncccc34)cc12 [Example 550, (S)-6-(((1-(1-(difluoromethyl)cyclopropyl)-1H-1,2,3-triazol-4-yl)(quinolin-5-yl)methyl)amino)-4-(neopentylamino)-quinoline-3,8-dicarbonitrile]
26 nM | 2 nM | – | – | CC(C)(C)CNc1c(C#N)cnc2c(C#N)cc(N[C@H](c3cn(C4(C(F)F)CC4)nn3)c3cccc4ccncc34)cc12 [Example 552, (S)-6-(((1-(1-(difluoromethyl)cyclopropyl)-1H-1,2,3-triazol-4-yl)(isoquinolin-8-yl)methyl)-amino)-4-(neopentylamino)quinoline-3,8-dicarbonitrile]
64 nM | 3 nM | – | – | Cc1nc(F)ccc1[C@H](Nc1cc(Cl)c2ncc(C#N)c(NCC(C)(C)C)c2c1)c1cn(C2(C(=O)N(C)C)CC2)nn1 [Example 553, (S)-1-(4-(((8-chloro-3-cyano-4-(neopentyl-amino)quinolin-6-yl)amino)(6-fluoro-2-methylpyridin-3-yl)methyl)-1H-1,2,3-triazol-1-yl)-N,N-dimethylcyclopropane-1-carboxamide]
